Experiments:
[1] = target: T1, Carboxypeptidase B2 (Homo sapiens, UniProt Q96IY4); assay: Inhibition of active form of human recombinant TAFI assessed as substrate turnover every 15 seconds for 30 mins
T1 sequence (Q96IY4 whole entry): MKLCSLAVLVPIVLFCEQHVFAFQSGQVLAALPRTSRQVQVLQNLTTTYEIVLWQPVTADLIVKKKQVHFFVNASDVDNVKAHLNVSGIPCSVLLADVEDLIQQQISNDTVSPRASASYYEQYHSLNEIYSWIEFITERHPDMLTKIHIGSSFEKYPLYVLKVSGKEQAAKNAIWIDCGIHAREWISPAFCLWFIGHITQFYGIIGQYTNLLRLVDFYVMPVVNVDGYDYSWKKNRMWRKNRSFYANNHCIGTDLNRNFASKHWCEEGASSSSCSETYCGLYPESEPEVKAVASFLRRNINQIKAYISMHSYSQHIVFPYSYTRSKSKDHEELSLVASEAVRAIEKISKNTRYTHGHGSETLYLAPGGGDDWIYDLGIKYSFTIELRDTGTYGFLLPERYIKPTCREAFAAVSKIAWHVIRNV

[2] = target: T2, Carboxypeptidase B (Homo sapiens, UniProt P15086); assay: Inhibition of human pancreatic carboxypeptidase B
T2 sequence (P15086 whole entry): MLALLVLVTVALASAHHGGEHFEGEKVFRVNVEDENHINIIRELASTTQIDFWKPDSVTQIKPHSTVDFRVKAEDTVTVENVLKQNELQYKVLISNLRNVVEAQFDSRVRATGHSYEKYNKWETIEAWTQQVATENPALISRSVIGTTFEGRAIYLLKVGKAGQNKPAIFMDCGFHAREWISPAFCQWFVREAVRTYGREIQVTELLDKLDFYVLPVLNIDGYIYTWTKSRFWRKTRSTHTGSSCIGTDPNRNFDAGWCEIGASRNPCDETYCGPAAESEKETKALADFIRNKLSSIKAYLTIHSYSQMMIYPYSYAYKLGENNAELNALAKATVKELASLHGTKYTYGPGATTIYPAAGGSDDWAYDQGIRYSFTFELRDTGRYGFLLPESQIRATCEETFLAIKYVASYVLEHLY

[3] = Clearance in rat at 2 mg/kg, iv; assay type: ADME, organism-based; parameters: dose 2 mg/kg, route intravenous; settings: in vivo
[4] = Half life in rat at 5 mg/kg, po; assay type: ADME, organism-based; parameters: dose 5 mg/kg, route oral; settings: in vivo
[5] = Half life in rat at 2 mg/kg, iv; assay type: ADME, organism-based; parameters: dose 2 mg/kg, route intravenous; settings: in vivo
[6] = Oral bioavailability in rat at 5 mg/kg; assay type: ADME, organism-based; settings: in vivo
[7] = Volume of distribution in rat at 2 mg/kg, iv; assay type: ADME, organism-based; parameters: dose 2 mg/kg, route intravenous; settings: in vivo
[8] = system: Plasma; assay: Plasma protein binding in rat; assay type: ADME, cell-free
[9] = Volume of distribution in human at 10 mg/kg, iv; assay type: ADME, organism-based; parameters: dose 10 mg/kg, route intravenous; settings: in vivo
[10] = Clearance in human at 10 mg/kg, iv; assay type: ADME, organism-based; parameters: dose 10 mg/kg, route intravenous; settings: in vivo
[11] = Half life in human at 10 mg/kg, iv; assay type: ADME, organism-based; parameters: dose 10 mg/kg, route intravenous; settings: in vivo

| SMILES | Ki [1] [nM] | Ki [2] [nM] | further results |
| --- | --- | --- | --- |
| CCCn1cnc(C[C@H](CCCN)C(=O)O)c1 [UK-396,082] | 16 | 206 | clearance [3]: 10.2 mL/min/kg; half-life [4]: 2.4 h; half-life [5]: 2.1 h; bioavailability [6]: 10.6%; Vd [7]: 1.9 L/kg; PPB [8]: 0%; Vd [9]: 0.5 L/kg; clearance [10]: 1.5 mL/min/kg; half-life [11]: 4 h |
| CCCn1cnc(C[C@H](NCCN)C(=O)O)c1 | 150 | 1160 |  |
| CCCCn1cnc(CC(OCCN)C(=O)O)c1 (racemic) | 15 | 360 |  |
| Cc1ccccc1-n1cnc(CC(OCCN)C(=O)O)c1 (racemic) | 65 | 2720 |  |
| CCCn1cnc(C[C@@H](OCCN)C(=O)O)c1 | > 10000 | > 10000 |  |
| CCCn1cnc(CC(OCCNC)C(=O)O)c1 (racemic) | 407 | > 10000 |  |

Stronger by Ki [1], values ahead:

| Ki [1] [nM] | Ki [2] [nM] | SMILES | further results |
| --- | --- | --- | --- |
| 3.5 | 27 | NCCO[C@@H](Cc1cn(-c2ccccc2)cn1)C(=O)O |  |
| 7.5 | 240 | C[C@H](CN)O[C@@H](Cc1cn(-c2ccccc2)cn1)C(=O)O |  |
| 5.8 | 265 | C[C@H](CN)O[C@@H](Cc1cn(-c2ccccn2)cn1)C(=O)O |  |
| 5.7 | 49 | CC(C)(C)c1ccc(-n2cnc(C[C@H](OCCN)C(=O)O)c2)cc1 |  |
| 8.2 | 27 | NCCO[C@@H](Cc1cn(CCC2CCCCC2)cn1)C(=O)O |  |
| 6.7 | 238 | CCCn1cnc(C[C@H](OCCN)C(=O)O)c1 | clearance [3]: 13.4 mL/min/kg; half-life [4]: 2.1 h; half-life [5]: 2.7 h; bioavailability [6]: 9.8%; Vd [7]: 3.1 L/kg; PPB [8]: 0% |

Source: ChEMBL document CHEMBL1153173, “Oxygenated analogues of UK-396082 as inhibitors of activated thrombin activatable fibrinolysis inhibitor” (Bioorg Med Chem Lett, 2010)
